How the values were obtained:
[1] = molecular target: MAP/microtubule affinity-regulating kinase 3 (Homo sapiens) (UniProt P27448); test: Inhibition of human full length c-TAK1 expressed in Escherichia coli cell assessed as substrate phosphorylation using fluorescence-labelled peptides as substrate at 0.06 uM after 90 mins by microfluidic peptide phosphorylation assay
[2] = molecular target: Vascular endothelial growth factor receptor 2 (Homo sapiens) (UniProt P35968); test: Inhibition of human KDR cytoplasmic domain expressed in baculovirus assessed as substrate phosphorylation using fluorescence-labelled peptides as substrate at 0.2 uM after 90 mins by microfluidic peptide phosphorylation assay
[3] = molecular target: Ribosomal protein S6 kinase alpha-3 (Homo sapiens) (UniProt P51812); test: Inhibition of human full length RSK2 expressed in baculovirus assessed as substrate phosphorylation using fluorescence-labelled peptides as substrate at 0.2 uM after 90 mins by microfluidic peptide phosphorylation assay
[4] = molecular target: T1, Serine/threonine-protein kinase BRSK2 (Homo sapiens) (UniProt Q8IWQ3); test: Inhibition of human truncated BRSK2 expressed in baculovirus assessed as substrate phosphorylation using fluorescence-labelled peptides as substrate at 0.1 uM after 90 mins by microfluidic peptide phosphorylation assay
T1 sequence (whole entry): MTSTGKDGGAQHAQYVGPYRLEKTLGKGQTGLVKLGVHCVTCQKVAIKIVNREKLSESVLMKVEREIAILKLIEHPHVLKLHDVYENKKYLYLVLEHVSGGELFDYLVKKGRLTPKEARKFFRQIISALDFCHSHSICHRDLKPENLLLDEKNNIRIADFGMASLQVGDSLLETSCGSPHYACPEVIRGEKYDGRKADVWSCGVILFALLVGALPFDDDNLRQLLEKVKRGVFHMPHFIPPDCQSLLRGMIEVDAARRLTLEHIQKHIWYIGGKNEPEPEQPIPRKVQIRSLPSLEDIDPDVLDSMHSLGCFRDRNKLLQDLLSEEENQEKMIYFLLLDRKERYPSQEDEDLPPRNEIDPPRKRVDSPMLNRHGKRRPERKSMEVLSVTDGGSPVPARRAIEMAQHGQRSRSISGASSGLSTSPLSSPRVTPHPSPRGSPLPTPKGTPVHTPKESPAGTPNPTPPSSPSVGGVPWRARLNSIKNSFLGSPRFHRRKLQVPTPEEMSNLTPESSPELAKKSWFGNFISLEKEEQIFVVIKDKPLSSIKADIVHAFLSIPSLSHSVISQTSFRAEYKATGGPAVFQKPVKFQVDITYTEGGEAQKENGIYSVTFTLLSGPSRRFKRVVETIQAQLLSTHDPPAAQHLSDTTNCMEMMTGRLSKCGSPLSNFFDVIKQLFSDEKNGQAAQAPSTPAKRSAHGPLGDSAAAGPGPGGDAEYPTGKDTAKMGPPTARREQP

[5] = molecular target: Tyrosine-protein kinase Fer (Homo sapiens) (UniProt P16591); test: Inhibition of human FER catalytic domain expressed in baculovirus assessed as substrate phosphorylation using fluorescence-labelled peptides as substrate at 9 uM after 90 mins by microfluidic peptide phosphorylation assay
[6] = molecular target: Hepatocyte growth factor receptor (Homo sapiens) (UniProt P08581); test: Inhibition of human MET cytoplasmic domain expressed in baculovirus assessed as substrate phosphorylation using fluorescence-labelled peptides as substrate at 95 uM after 90 mins by microfluidic peptide phosphorylation assay
[7] = molecular target: T2, cGMP-dependent protein kinase 1 (Homo sapiens) (UniProt Q13976); test: Inhibition of human full length PKG-1a expressed in baculovirus assessed as substrate phosphorylation using fluorescence-labelled peptides as substrate at 8 uM after 90 mins by microfluidic peptide phosphorylation assay
T2 sequence (whole entry): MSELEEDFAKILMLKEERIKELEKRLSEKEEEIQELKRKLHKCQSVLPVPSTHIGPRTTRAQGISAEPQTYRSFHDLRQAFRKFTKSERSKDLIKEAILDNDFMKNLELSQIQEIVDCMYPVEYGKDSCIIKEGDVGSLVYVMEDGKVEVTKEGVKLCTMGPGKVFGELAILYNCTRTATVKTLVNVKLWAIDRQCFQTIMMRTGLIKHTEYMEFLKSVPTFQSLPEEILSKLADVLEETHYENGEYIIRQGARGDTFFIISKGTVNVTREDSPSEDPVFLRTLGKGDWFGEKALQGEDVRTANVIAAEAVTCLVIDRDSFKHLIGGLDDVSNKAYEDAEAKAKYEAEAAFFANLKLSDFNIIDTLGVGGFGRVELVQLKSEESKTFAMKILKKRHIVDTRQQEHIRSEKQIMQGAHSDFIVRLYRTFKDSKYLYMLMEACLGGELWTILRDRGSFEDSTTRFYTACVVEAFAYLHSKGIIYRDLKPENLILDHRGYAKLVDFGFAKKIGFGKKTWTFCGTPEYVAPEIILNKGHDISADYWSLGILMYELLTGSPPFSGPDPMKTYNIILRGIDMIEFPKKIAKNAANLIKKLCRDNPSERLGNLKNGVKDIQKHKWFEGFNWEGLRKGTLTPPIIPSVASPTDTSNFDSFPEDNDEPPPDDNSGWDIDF

[8] = molecular target: Ribosomal protein S6 kinase alpha-5 (Homo sapiens) (UniProt O75582); test: Inhibition of human full length MSK1 expressed in baculovirus assessed as substrate phosphorylation using fluorescence-labelled peptides as substrate at 8 uM after 90 mins by microfluidic peptide phosphorylation assay
[9] = molecular target: Calcium/calmodulin-dependent protein kinase type II subunit delta (Homo sapiens) (UniProt Q13557); test: Inhibition of human full length CAMK2D expressed in baculovirus assessed as substrate phosphorylation using fluorescence-labelled peptides as substrate at 2 uM after 90 mins by microfluidic peptide phosphorylation assay
[10] = molecular target: MAP kinase p38 (Homo sapiens) (UniProt O15264+Q15759+Q16539+P53778); test: Inhibition of human full length p38 beta2 expressed in Escherichia coli cell assessed as substrate phosphorylation using fluorescence-labelled peptides as substrate at 2 uM after 90 mins by microfluidic peptide phosphorylation assay
[11] = molecular target: T3, Serine/threonine-protein kinase Chk1 (Homo sapiens) (UniProt O14757); test: Inhibition of human full length CHK1 expressed in baculovirus assessed as substrate phosphorylation using fluorescence-labelled peptides as substrate at 2 uM after 90 mins by microfluidic peptide phosphorylation assay
T3 sequence (whole entry): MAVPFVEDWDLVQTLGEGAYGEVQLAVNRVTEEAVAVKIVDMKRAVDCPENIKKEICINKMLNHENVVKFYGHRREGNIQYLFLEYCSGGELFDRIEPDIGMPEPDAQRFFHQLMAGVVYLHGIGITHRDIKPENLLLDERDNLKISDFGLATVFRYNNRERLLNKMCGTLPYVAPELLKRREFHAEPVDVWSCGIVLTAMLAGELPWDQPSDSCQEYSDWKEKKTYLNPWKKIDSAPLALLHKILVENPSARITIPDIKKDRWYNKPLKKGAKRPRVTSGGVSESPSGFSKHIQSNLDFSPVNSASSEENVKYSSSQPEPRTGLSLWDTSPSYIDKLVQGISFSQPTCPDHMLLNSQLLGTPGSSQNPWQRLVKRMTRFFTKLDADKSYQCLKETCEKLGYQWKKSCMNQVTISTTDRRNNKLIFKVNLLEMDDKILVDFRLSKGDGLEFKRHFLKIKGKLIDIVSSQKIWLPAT

Chain of Hepatocyte growth factor receptor (Homo sapiens) (P08581 whole entry, the tested form may be a part): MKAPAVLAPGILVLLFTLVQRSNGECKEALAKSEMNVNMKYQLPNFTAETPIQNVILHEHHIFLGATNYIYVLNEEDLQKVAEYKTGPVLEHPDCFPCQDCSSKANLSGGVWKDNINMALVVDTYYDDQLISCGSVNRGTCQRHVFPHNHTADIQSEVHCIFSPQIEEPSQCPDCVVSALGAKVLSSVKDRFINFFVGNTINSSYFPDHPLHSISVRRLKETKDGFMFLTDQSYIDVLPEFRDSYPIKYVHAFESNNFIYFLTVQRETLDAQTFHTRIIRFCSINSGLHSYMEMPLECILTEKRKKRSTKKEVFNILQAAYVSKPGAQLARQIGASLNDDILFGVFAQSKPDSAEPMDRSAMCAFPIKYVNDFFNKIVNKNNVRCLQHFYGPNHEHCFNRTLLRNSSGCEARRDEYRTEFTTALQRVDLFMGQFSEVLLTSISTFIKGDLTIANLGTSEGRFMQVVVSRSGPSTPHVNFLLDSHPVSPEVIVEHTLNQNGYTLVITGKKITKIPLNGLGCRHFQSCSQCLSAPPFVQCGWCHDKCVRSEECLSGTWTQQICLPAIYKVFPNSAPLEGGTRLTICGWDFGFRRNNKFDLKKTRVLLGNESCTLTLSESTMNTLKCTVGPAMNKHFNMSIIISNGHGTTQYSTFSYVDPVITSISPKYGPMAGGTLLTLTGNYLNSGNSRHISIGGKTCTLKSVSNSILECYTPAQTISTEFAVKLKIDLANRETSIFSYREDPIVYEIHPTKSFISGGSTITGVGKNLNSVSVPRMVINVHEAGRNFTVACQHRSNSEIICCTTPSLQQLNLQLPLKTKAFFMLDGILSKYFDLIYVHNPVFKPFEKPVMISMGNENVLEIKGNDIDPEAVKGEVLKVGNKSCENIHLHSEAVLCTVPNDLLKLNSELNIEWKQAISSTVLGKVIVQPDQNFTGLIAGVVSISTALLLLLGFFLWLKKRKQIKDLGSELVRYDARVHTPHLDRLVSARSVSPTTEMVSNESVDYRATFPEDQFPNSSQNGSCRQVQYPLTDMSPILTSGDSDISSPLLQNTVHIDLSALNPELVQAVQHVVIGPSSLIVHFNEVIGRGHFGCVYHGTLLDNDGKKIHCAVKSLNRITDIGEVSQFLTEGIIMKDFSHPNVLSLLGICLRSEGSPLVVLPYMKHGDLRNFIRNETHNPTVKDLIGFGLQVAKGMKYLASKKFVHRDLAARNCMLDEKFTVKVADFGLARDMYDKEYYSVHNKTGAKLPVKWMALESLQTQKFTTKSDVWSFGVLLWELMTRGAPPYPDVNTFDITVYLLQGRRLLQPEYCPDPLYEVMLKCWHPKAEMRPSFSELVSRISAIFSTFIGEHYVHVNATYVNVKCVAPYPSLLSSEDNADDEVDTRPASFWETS
Chain of Ribosomal protein S6 kinase alpha-5 (Homo sapiens) (O75582 whole entry, looked up): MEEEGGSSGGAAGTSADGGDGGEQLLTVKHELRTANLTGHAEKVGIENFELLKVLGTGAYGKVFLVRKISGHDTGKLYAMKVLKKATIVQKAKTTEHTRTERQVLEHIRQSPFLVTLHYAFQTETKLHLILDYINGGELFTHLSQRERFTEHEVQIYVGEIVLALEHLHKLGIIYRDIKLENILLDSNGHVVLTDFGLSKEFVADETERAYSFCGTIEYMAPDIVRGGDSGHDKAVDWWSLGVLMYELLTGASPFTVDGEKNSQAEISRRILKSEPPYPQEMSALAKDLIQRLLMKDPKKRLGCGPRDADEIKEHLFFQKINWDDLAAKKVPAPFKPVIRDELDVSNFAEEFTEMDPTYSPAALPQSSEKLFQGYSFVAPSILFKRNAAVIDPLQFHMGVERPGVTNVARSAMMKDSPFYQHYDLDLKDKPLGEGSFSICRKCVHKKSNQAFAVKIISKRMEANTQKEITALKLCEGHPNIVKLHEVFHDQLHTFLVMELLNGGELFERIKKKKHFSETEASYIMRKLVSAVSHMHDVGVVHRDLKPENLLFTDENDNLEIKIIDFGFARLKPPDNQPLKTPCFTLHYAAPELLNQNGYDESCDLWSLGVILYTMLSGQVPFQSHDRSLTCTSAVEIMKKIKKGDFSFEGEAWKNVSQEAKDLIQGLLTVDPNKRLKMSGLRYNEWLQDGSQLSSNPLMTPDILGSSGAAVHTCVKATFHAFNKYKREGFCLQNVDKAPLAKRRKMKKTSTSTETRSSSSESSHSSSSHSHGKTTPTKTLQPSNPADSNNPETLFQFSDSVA
Chain of Calcium/calmodulin-dependent protein kinase type II subunit delta (Homo sapiens) (Q13557 whole entry): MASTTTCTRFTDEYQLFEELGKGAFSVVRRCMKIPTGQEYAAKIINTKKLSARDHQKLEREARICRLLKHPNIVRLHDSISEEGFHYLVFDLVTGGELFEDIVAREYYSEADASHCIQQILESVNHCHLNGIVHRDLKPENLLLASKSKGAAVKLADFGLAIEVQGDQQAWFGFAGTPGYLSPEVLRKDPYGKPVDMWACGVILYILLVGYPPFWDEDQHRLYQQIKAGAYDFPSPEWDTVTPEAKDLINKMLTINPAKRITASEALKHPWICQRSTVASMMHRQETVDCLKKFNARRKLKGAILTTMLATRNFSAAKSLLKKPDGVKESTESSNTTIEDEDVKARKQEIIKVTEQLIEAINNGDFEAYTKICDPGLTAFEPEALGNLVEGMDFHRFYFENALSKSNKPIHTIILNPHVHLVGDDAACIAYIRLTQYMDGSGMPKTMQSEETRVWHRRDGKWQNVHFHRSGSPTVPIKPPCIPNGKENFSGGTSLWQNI
Chain of Ribosomal protein S6 kinase alpha-3 (Homo sapiens) (P51812 whole entry, the tested form may be a part): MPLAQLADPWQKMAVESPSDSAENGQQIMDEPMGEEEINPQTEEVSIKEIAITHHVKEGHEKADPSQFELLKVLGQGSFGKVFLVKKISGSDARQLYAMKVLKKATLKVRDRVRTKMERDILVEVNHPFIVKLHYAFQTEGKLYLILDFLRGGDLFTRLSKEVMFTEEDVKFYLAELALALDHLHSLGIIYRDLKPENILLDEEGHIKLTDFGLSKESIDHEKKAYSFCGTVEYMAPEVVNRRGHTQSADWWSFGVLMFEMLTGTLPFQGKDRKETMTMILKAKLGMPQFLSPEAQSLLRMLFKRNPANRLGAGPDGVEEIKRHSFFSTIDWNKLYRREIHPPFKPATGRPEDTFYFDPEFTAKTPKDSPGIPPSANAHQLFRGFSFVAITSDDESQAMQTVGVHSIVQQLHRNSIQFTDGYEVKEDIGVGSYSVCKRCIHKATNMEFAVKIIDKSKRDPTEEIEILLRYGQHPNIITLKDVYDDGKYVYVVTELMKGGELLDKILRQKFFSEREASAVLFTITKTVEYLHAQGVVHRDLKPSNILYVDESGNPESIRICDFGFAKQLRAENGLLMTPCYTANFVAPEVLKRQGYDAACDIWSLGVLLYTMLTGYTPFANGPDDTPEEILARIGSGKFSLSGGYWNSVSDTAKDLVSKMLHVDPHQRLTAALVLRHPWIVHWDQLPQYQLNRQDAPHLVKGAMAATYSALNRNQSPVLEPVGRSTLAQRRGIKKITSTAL
Chain of Tyrosine-protein kinase Fer (Homo sapiens) (P16591 whole entry, looked up, the tested form may be a part): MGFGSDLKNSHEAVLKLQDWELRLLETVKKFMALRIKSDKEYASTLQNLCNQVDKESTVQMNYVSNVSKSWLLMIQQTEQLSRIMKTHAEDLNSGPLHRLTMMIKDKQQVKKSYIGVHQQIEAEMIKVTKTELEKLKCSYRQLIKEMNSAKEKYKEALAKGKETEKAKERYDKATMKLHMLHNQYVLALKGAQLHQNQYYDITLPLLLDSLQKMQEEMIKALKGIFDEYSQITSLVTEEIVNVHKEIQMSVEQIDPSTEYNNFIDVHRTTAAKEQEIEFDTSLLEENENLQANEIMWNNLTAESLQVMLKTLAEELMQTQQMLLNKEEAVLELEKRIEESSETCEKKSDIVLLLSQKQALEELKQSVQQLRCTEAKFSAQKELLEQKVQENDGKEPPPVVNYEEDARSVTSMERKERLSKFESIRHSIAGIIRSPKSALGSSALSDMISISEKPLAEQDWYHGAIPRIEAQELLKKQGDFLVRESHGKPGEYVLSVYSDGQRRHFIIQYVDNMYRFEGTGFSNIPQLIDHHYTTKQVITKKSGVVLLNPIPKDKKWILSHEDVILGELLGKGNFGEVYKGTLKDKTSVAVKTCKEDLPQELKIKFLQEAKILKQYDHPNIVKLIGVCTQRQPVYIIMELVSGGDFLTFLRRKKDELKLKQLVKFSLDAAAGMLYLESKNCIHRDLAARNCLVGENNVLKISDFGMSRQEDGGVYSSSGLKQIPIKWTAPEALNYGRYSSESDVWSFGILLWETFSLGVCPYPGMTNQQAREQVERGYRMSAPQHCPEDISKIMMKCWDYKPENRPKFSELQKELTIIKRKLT
Chain of MAP/microtubule affinity-regulating kinase 3 (Homo sapiens) (P27448 whole entry, looked up, the tested form may be a part): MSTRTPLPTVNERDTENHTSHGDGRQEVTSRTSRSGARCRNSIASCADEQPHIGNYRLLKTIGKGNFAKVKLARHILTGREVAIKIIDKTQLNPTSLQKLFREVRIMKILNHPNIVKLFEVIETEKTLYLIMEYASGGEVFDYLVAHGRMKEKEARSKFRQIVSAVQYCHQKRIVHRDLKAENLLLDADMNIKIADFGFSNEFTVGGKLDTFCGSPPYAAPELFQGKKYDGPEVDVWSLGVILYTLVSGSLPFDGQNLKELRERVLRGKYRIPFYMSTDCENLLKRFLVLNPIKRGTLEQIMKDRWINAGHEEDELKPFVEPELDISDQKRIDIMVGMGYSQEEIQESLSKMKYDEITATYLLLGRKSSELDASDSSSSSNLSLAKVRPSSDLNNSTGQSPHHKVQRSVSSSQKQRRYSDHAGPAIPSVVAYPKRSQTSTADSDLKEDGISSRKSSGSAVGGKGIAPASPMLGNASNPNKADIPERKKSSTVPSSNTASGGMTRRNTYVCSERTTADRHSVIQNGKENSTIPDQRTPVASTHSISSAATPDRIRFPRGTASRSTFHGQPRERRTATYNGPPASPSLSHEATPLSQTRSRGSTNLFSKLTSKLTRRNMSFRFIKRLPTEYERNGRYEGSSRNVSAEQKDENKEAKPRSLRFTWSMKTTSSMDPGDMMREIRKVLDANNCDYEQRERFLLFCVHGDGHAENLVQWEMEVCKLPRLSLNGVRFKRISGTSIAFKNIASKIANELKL

NC1(Cc2ccc(Cl)cc2)CCN(c2ncnc3[nH]ccc23)CC1
inhibition [1]: 0%

Clc1ccc(C2(c3ccc(-c4ncnc5[nH]cnc45)cc3)CCNCC2)cc1
inhibition [2]: 9% | inhibition [3]: 55%

C[C@H](CN(C)C)Oc1nc(Nc2cc3cccc(Cl)c3cn2)cnc1C#N
inhibition [4]: 28.5%

NCC1CN(c2ncnc3[nH]c4cnccc4c23)CCO1 (stereo unspecified)
inhibition [5]: 11%

NCCc1ccc(-c2ncnc3[nH]cnc23)cc1
inhibition [6]: 5.5%

NCC1CCN(c2ncnc3[nH]ccc23)CC1
inhibition [7]: 14% | inhibition [8]: 68%

NC1CCN(c2ncnc3[nH]ccc23)CC1
inhibition [9]: 8% | inhibition [10]: 5.5% | inhibition [11]: 1.5%

Reference: ChEMBL document CHEMBL3132769, “Fragment growing to retain or alter the selectivity of anchored kinase hinge-binding fragments” (Medchemcomm, 2014)
